Test [1] addresses T1, human indoleamine 2,3-dioxygenase 1 (hIDO1) (Homo sapiens, UniProt P14902).
T1 construct: His tag (N); purchased BPS Bioscience, San Diego, Calif., USA; host or cells: E. coli
The experiment in a line: In-vitro human indoleamine 2,3-dioxygenase 1 (IDO1) enzyme assay. Format: biochemical. The conditions noted are these: for IC50: hIDO1 enzyme; for inhibition at 1 µM: hIDO1 enzyme at 1.0 μM concentration; for inhibition at 10 µM: hIDO1 enzyme at 10.0 μM concentration. The procedure, abridged: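 His-tagged hIDO1 (E. coli, 50 ng) incubated with 80 μM tryptophan, 10 mM ascorbate, 10 μM methylene blue, catalase and 0.01% Tween-20 in 50 mM sodium phosphate pH 6.5, 60 min, 37 °C. Piperidine converts N-formylkynurenine to fluorescent NFK-PIP (ex 400/em 500 nm); IC50 by nonlinear regression.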

Test [2] deals with T2, human tryptophan 2,3-dioxygenase (hTDO) (Homo sapiens, UniProt P48775).
T2 construct: His tag (N); purchased BPS Bioscience, San Diego, Calif., USA; host or cells: E. coli
The experiment in a line: In-vitro human tryptophan 2,3-dioxygenase (TDO) enzyme assay. Type of test: biochemical. The settings on record: hTDO enzyme at 1.0 μM concentration. The essentials:
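N-His-tagged hTDO expressed in E. coli (125 ng) incubated with 200 μM L-tryptophan, 100 mM sodium phosphate pH 7.0, 0.01% Tween-20, 100 μM ascorbate, 60 min at 37 °C. Product converted with 200 mM piperidine (65 °C, 20 min) to NFK-PIP, fluorescence 400/500 nm; IC50 by nonlinear regression.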

Each structure is given as a SMILES string. Bounds are passed on as bounds.

The results in this text go back to US20190031665A1, “DERIVATIVES OF PYRROLOIMIDAZOLE OR ANALOGUES THEREOF WHICH ARE USEFUL FOR THE TREATMENT OF INTER ALIA CANCER” (EMCURE PHARMACEUTICALS LIMITED, priority 2016, published 2019).

For orientation: IC50 means the point on the concentration scale where inhibition reaches its midpoint. Read a low IC50 as higher potency. As usually defined, the inhibition is the drop in the measured response relative to a control, in per cent. Read a low inhibition as a weak effect.

T2 sequence (P48775 whole entry): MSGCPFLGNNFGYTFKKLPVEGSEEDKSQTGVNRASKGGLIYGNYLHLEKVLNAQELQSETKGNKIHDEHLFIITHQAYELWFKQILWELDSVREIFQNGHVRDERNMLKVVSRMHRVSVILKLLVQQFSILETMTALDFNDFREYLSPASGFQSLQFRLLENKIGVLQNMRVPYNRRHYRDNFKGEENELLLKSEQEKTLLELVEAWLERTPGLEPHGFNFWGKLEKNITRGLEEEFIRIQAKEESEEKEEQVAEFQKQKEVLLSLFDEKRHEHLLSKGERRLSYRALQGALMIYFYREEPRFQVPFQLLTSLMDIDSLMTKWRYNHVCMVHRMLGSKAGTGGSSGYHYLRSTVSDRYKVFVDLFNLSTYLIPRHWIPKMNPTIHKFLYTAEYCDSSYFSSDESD
T1 sequence (P14902 whole entry): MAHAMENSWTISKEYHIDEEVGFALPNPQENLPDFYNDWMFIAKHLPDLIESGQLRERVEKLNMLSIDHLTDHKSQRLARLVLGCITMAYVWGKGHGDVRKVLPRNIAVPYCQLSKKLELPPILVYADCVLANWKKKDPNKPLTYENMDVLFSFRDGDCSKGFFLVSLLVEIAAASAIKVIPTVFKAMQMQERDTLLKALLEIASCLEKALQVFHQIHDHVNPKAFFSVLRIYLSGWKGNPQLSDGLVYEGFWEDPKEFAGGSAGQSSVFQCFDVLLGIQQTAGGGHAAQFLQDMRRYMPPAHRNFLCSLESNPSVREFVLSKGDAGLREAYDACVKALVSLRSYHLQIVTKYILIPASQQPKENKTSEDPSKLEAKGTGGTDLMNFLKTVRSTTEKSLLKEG

In test [1], `CC1=C(c2ccccc2)C(C[C@H](O)C2CCC(C(=O)Nc3ccncc3)CC2)n2cncc21` (stereo partly drawn) [Example 119] registered an IC50 below 500 nM, an inhibition at 1 µM of at least 50% and an inhibition at 10 µM of at least 50%. The same compound showed an inhibition at 1 µM in test [2] of at least 50%.

In test [1], `CC1=C(c2ccccc2)C(C[C@H](O)C2CCC(C(=O)Nc3ccc(Cl)cc3C)CC2)n2cncc21` (stereo partly drawn) [Example 120] had an IC50 below 500 nM, an inhibition at 1 µM of at least 50% and an inhibition at 10 µM of at least 50%. The compound further registered an inhibition at 1 µM in test [2] of at least 50%.

In the case of `CC1=C(c2ccccc2)C(CC(=O)C2CCC(C(=O)NC3CCCCC3)CC2)n2cncc21` (stereo not drawn) [Example 123], in test [1], the inhibition at 1 µM was at most 50% and the inhibition at 10 µM was at least 50%. In test [2], this compound returned an inhibition at 1 µM of at least 50%.

For the compound `CC1=C(c2ccccc2)C(CC(=O)C2CCC(C(=O)N3CCC(=O)CC3)CC2)n2cncc21` (stereo not drawn) [Example 124], in test [1], the inhibition at 1 µM is at most 50% and the inhibition at 10 µM was at least 50%. Besides, the inhibition at 1 µM in test [2] was at most 50%.

For `CC1=C(c2ccccc2)C(C[C@H](O)C2CCC(C(=O)N3CCC(O)CC3)CC2)n2cncc21` (stereo partly drawn) [Example 125], in test [1], the inhibition at 1 µM is at least 50% and the inhibition at 10 µM was at least 50%. The same compound came in with an inhibition at 1 µM in test [2] of at most 50%.

As to `CC1=C(c2ccccc2)C(C[C@H](O)C2CCC(C(=O)NC3CCCCC3)CC2)n2cncc21` (stereo partly drawn) [Example 126], in test [1], the IC50 is below 500 nM, the inhibition at 1 µM is at least 50% and the inhibition at 10 µM is at least 50%. The same compound came in with an inhibition at 1 µM in test [2] of at least 50%.

With `CC1=C(c2ccccc2)C(CC(O)C2CCC(O)CC2)n2cncc21` (stereo not drawn) [Example 127], the inhibition at 1 µM in test [1] and in test [2] was at least 50% in each case.

In test [1], `CC1=C(c2ccccc2)C(C[C@H](O)C2CCC(C(=O)Nc3cccnc3)CC2)n2cncc21` (stereo partly drawn) [Example 128] displayed an IC50 below 500 nM, an inhibition at 1 µM of at least 50% and an inhibition at 10 µM of at least 50%. For the same compound, in test [2], the inhibition at 1 µM was at least 50%.

In test [1], `CC1=C(c2ccccc2)C(CC(O)[C@H]2CC[C@H](C(=O)N[C@H]3CC[C@H](O)CC3)CC2)n2cncc21` (stereo partly drawn) [Example 129] gave a half-inhibitory concentration (IC50) above 500 nM, an inhibition at 1 µM of at least 50% and an inhibition at 10 µM of at least 50%. Besides, the inhibition at 1 µM in test [2] was at least 50%.

As to `CC1=C(c2ccccc2)C(CC(=O)C2CCC(C(=O)O)CC2)n2cncc21` (stereo not drawn) [Example 130], the inhibition at 1 µM in test [1] and in test [2] was at most 50% throughout. In test [1], this compound gave an inhibition at 10 µM of at most 50%.

In test [1], `COC(=O)[C@H]1CC[C@@H]([C@@H](O)CC2C(c3ccccc3)=C(C)c3cncn32)CC1` (stereo partly drawn) [Example 131] yielded an IC50 below 500 nM, an inhibition at 1 µM of at least 50% and an inhibition at 10 µM of at least 50%. In test [2], this compound showed an inhibition at 1 µM of at least 50%.

In test [1], `CC1=C(c2ccccc2)C(C[C@H](O)C2CCC(C(=O)O)CC2)n2cncc21` (stereo partly drawn) [Example 133] yielded an inhibition at 1 µM of at most 50% and an inhibition at 10 µM of at least 50%. Also, the inhibition at 1 µM in test [2] was at least 50%.

For `CNC(=O)C1CCC(C(=O)CC2C(c3ccccc3)=C(C)c3cncn32)CC1` (stereo not drawn) [Example 135], in test [1], the inhibition at 1 µM is at most 50% and the inhibition at 10 µM was at most 50%. In test [2], this compound registered an inhibition at 1 µM of at least 50%.

In test [1], `CC1=C(c2ccccc2)C(CC(=O)C2CCC(c3ccccc3)CC2)n2cncc21` (stereo not drawn) [Example 136] returned an inhibition at 1 µM of at least 50% and an inhibition at 10 µM of at least 50%. The same compound had an inhibition at 1 µM in test [2] of at least 50%.

With `CC1=C(c2ccccc2)C(CC(O)C2CCN(C(=O)OCc3ccccc3)CC2)n2cncc21` (stereo not drawn) [Example 137, 4-[1-Hydroxy-2-(7-methyl-6-phenyl-5H-pyrrolo[1,2-c]imidazol-5-yl)-ethyl]-piperidine-1-carboxylic acid benzyl ester], in test [1], the IC50 is below 500 nM, the inhibition at 1 µM is at least 50% and the inhibition at 10 µM is at least 50%. In test [2], this compound had an inhibition at 1 µM of at least 50%.
